# Results reported in patent US6642031B2, “Microorganisms with ability to degrade indole and enzymes therefrom” (Genencor International, Inc., priority 1995, dated 2003).
# “And” between values parts separate entries of the source, which are not always exact repeats. Equal values may be shown once. Read-outs that look alike come from different tables or passages of the source.
# Columns and labels:
# indole oxidase [1] = experiment: Cell-free oxygen uptake in WW2 indole-induced cell extract; assay type: biochemical, Pseudomonas putida; details: for Oxygen Uptake: 1.82 mg/ml cell extract protein, 1 mM NADH, pH 7.5, corrected for uptake without substrate
# indole oxidase [2] = experiment: Substrate depletion assay with cell extract, GC/MS and visible spectrum; assay type: biochemical, Pseudomonas putida
# Experimental: Substrate depletion assays. Substrate depletion assays were carried out in 1.5 ml to 10 ml reactions containing crude SCF, 4.0 mM NADH or NADPH, 2.0 μM FAD, and 1.0 mM indole in 50 mM Tris-HCl (pH 7.5 or 8.0). Substrate and product concentrations were determined by incubating the reactions for the specified period of time with shaking at 250 rpm, extracting 1.0 ml of the aqueous reaction with ethyl acetate and analyzing the extract by gas chromatography-mass spectrometry (GC/MS) described below.
# GC/MS was carried out with a Hewlett-Packard model 5890 gas chromatograph equipped with a Hewlett-Packard DB-5 capillary column (inside diameter 0.2 mm by 25 m) and a Hewlett-Packard model 5971 mass selective detector (electron impact ionization 70 eV). The column temperature was programmed from 50 to 325° C. at 10° C./min with a helium flow of 12 cm/s. Temperatures of the injection port and transfer line were 250 and 280° C., respectively.
# After indole was completely consumed the reaction mixture was diluted into dimethylformamide (DMF) and the visible spectrum of the resultant blue solution was measured.
# [3] = system: Pseudomonas putida strain WW2; experiment: Growth on carbon sources in MSB liquid culture or agar plates; details: for support of growth as carbon source (words): MSB liquid medium or agar plates
# Experimental: Cultivation of the organism. Growth was measured turbidimetrically at 600 nm. […] Additional potential carbon sources were assessed in MSB supplemented with the carbon alternate source (0.2% (w/v) unless specified otherwise) or on plates provided with volatile substrates in the vapor phase. Growth was also conducted in 14 L fermenters in the fed batch mode. […] To study enzyme activity of indole oxidase, the organism was cultured in 50 or 500 ml of media (in 250 ml or 2.8 L nominal volume flasks, respectively) containing minimal salts, succinate and 0.02% indole at 30° C. with rotary shaking (200 rpm).
# (§1) Carbon utilization of WW2 was determined by its ability to grow on alternate carbon sources. The bulk of these were determined by Biolog assay. […] In addition, substrate-dependent oxygen consumption of whole resting cells was measured by oxygraph assay as described in Example 11.
# Strain WW2 = experiment: Induction and sustaining of indole oxidation activity in growing cultures (oxygen uptake with indole); assay type: cell-based, Pseudomonas putida; details: for Oxygen Uptake Rate, Rate 3 h After Re-Addition: re-addition (indole 0.2 g/l and/or succinate 2 g/l) to 4 h indole-induced cells, measured 7 h after initial induction
# Excerpt: Several methods were examined to induce cultures of strain Pseudomonas putida WW2 for indole oxidation during growth. These included growing the strain in MSB containing 0.2% succinate with: (i) a single addition of 0.02% indole and 0.2% succinate during late log phase; (ii) indole provided in the vapor phase, during growth, from a small cloth bag containing indole crystals suspended above the surface of the medium; or (iii) both indole vapor during growth and direct addition of 0.02% indole and 0.2% succinate during late log phase.
# (§2) Indole oxidation activity in whole cells was routinely determined by measuring oxygen uptake rates with a Biological Oxygen Monitor (Yellow Springs Instrument Co., model 5300, Ohio) equipped with a Clark electrode. Reactions were carried out in a stirred, 1.5 ml reaction chamber at 25° C. Washed cells of strain WW2 suspended in 50 mM Tris-HCl (pH 7.5) to an A600 of 2.0 were pre-equilibrated at 25° C. before their addition to the reaction chamber. After recording the endogenous oxygen uptake rate, indole or other substrates (100 mM in dimethylformamide) were added to a final concentration of 0.3 to 1 mM. […] Reported rates were corrected for oxygen uptake observed in the absence of substrate. In the case of indoxyl, the reported rate was also corrected for the spontaneous oxygen consumption rate of indoxyl oxidation in the absence of indole-induced cells.
# Strain WW2 whole cells = experiment: Whole cell oxygen uptake with indole and related substrates (Clark electrode oxygraph); assay type: cell-based, Pseudomonas putida; details: for Relative % (oxygen uptake rate) / Oxygen Uptake: substrate 0.6 mM; for Relative % (oxygen uptake rate): indole-dependent rate defined as 100%; for Oxygen Uptake: whole cells 4.5 h after indole induction, corrected for uptake without substrate
# Experimental: as §1, §2
# [4] = system: indole oxidation activity in strain WW2 crude cell extract; experiment: Cell-free indole-dependent NAD(P)H oxidation, cofactor requirements (spectrophotometric); assay type: biochemical, Pseudomonas putida
# Experimental: Spectrophotometric assavs. Cell-free, indole-dependent NADH oxidation was measured spectrophotometrically with a Hewlett-Packard 8452A diode array spectrophotometer. The reactions (1.0 ml volume) contained crude soluble cytosolic fraction (SCF), 3.0 mM NADH, 2.0 mM indole and 50 mM Tris-HCl (pH 7.5). The reactions were initiated by addition of NADH and the initial rates were corrected for background NADH oxidation rates, which were measured in the absence of indole. NADPH was substituted for NADH to compare its ability to serve as an electron donor for indole oxidation activity.
# Cofactor requirement of the indole oxidizing activity in the crude soluble cytosolic fraction was investigated in spectrophotometric assays as described in Example 6.
# [5] = substrate 0.3 mM, indole = 100%
Structure (SMILES),Oxygen Uptake (indole oxidase [1]; substrate 0.3 mM) [O2 %/min/ODU],Relative % (oxygen uptake rate) (indole oxidase [1]; [5]) [%],Relative % (oxygen uptake rate) (Strain WW2 whole cells) [%],Oxygen Uptake (Strain WW2 whole cells) [O2 %/min/ODU],also measured
c1ccc2[nH]ccc2c1 [Indole],14.5,100,100,11.8,"conversion of indole to indigo (indole oxidase [2]; 4.0 mM NADPH as electron donor, from absorption at 610 nm in DMF): 20%; support of growth as carbon source (words) [3]: good carbon source; concentration above which toxic ([3]; liquid culture): exceeded 400 mg/L; Oxygen Uptake Rate, Rate After 4 h Induction with Indole (Strain WW2; induced with indole 0.2 g/l at 16 h growth, before re-addition): 14.4 O2 %/min/ODU and 13.3 O2 %/min/ODU and 14.1 O2 %/min/ODU and 12.1 O2 %/min/ODU; Oxygen Uptake Rate, Rate 3 h After Re-Addition (Strain WW2): 13.8 O2 %/min/ODU"
Oc1ccc2[nH]ccc2c1 [5-OH-Indole],3.5,24,–,–,–
Clc1ccc2cc[nH]c2c1 [6-Cl-Indole],7,48,–,–,–
"NC(=O)C1=CN([C@@H]2O[C@H](COP(=O)(O)OP(=O)(O)OC[C@H]3O[C@@H](n4cnc5c(N)ncnc54)[C@H](OP(=O)(O)O)[C@@H]3O)[C@@H](O)[C@H]2O)C=CC1 [NADPH, nicotinamide adenine phosphate dinucleotide]",–,–,–,–,"rate of indole removal relative to that observed with NADH (indole oxidase [2]; 4.0 mM NADPH instead of NADH, cell extract 0.57 mg/ml, pH 8): approximately 60%"
Clc1ccc2[nH]ccc2c1 [5-Cl-Indole],4,28,–,–,–
"Cc1cc2nc3c(=O)[nH]c(=O)nc-3n(C[C@H](O)[C@H](O)[C@H](O)COP(=O)(O)OP(=O)(O)OC[C@H]3O[C@@H](n4cnc5c(N)ncnc54)[C@H](O)[C@@H]3O)c2cc1C [FAD, flavin adenine dinucleotide]",–,–,–,–,stimulation of activity by cofactor added to the assay [4]: 3 fold
C1=Cc2ccccc2C1 [indene],–,–,–,–,"2-indanone, single detectable product, share of total ion current (indole oxidase [2]; crude SCF with NADPH, GC/MS): approximately 20%"
Cc1c[nH]c2ccccc12 [3-Me-Indole],2,14,–,–,–
O=C(O)CCC(=O)O [Succinate],–,–,–,–,"Oxygen Uptake Rate, Rate 3 h After Re-Addition (Strain WW2): 1.8 O2 %/min/ODU"
"Nc1ccccc1C(=O)O [Anthranilate, Anthranilic acid]",–,–,<1,0.6,stimulation of oxygen uptake rate (Strain WW2 whole cells; whole resting cells): no significant stimulation
"c1ccc2occc2c1 [2,3-Benzofuran]",0,0,30,3.5,–
Cc1cc2nc3c(=O)[nH]c(=O)nc-3n(C[C@H](O)[C@H](O)[C@H](O)COP(=O)(O)O)c2cc1C [FMN],–,–,–,–,effect of added cofactor on activity [4]: no effect
"O=C1Nc2ccccc2C1=O [Isatin, 2,3-dioxoindole]",0,0,–,–,–
Cc1cccc2[nH]ccc12 [4-Me-Indole],1,7,–,–,–
Oc1cccc2[nH]ccc12 [4-OH-Indole],2.5,–,–,–,Relative % (oxygen uptake rate) (indole oxidase [1]): 17%
"Fc1ccc2[nH]ccc2c1 [5-F-Indole, 5-fluoroindole]",13.5,93,50,5.9,–
Brc1ccc2[nH]ccc2c1 [5-Br-Indole],0,0,–,–,–
O=[N+]([O-])c1ccc2[nH]ccc2c1 [5-NO2-Indole],0,0,–,–,–
Clc1cccc2[nH]ccc12 [4-Cl-Indole],0,0,–,–,–
COc1ccc2[nH]ccc2c1 [5-MeO-Indole],1,–,–,–,Relative % (oxygen uptake rate) (indole oxidase [1]): 7%
Cc1cccc2cc[nH]c12 [7-Me-Indole],12.5,86,39,4.6,–
"Oc1c[nH]c2ccccc12 [Indoxyl, 3-hydroxyindole]",–,–,177,20.9,increase in oxygen uptake rate (Strain WW2 whole cells; relative to indole): 1.7 fold
c1ccc2sccc2c1 [Thianaphthene],1,7,26,3.1,–
c1ccc2ccccc2c1 [Naphthalene],–,–,9,1.1,activity of the enzyme with the substrate (indole oxidase [1]): very low activity; support of growth as carbon source (words) [3]: did not support growth; support of growth as carbon source (words) ([3]; listed as naphthalene): not to support growth; Relative % (oxygen uptake rate) (Strain WW2 whole cells; listed as naphthalene): 9%
"O=S(=O)([O-])[O-].O=S(=O)([O-])[O-].[Fe+2].[NH4+].[NH4+] [Fe^++, Fe(NH4)2SO4]",–,–,–,–,effect of added cofactor on activity [4]: stimulatory effect
